Test results taken from US9975853B2, “Tetrahydroisoquinolinone derivatives and their use in the inhibition of the HSP70 protein” (Julius-Maximilians-Universitaet Wuerzburg, priority 2014, dated 2018).
Read-outs that look alike come from different tables or passages of the source. Values belong to the compound of their own block, whether it stands above or below them. Peptide text beside a SMILES is read from it. * marks the point of attachment. Cbz = O=C(OCc1ccccc1)*; CH2F = FC*

Experiments:
[1] = system: INA-6; experiment: Cell viability assay (annexin V-FITC/propidium iodide, flow cytometry) in INA-6 multiple myeloma cells; assay type: cell-based, human; settings: for EC50: INA-6 multiple myeloma cells, 72 hours of treatment, viable cell fraction, mean of at least three determinations, read-out: INA-6 EC50(±sdv)
Protocol: The effect of pharmacological Hsp70 inhibition on cell viability was analyzed after 72 hours of treatment in both non-malignant (mononuclear cells from the peripheral blood) and malignant lymphocytes (multiple myeloma cells). The mononuclear cells were separated from the peripheral blood of healthy donors by Ficoll-Hypaque density gradient centrifugation. The human cell line INA-6 represents a well-established model for multiple myeloma. The percentage of viable and apoptotic cell fractions was assessed using an annexin V-FITC/propidium iodide (PI) staining kit (Bender MedSystems, Vienna, Austria) according to manufacturer's instructions. In brief, cells were washed in PBS, incubated for 10 min in 100 ml binding buffer (10 mM HEPES/NaOH, pH 7.4, 140 mM NaCl, 2.5 mM CaCl2) containing 2.5 ml annexin V-FITC mix and 1 mg/ml propidium iodide (PI), subsequently diluted with 100 ml binding buffer and analyzed by flow cytometry (FACSCalibur/CELLQuest; Becton Dickinson, Heidelberg, Germany). Whereas viable cells are negative for both, annexin V-FITC and PI, early apoptotic cells show a positive annexin V-FITC staining, and cells in a late apoptotic stage which lose their membrane integrity additionally incorporate DNA-binding PI. To establish kill curves, concentrations of the tested compounds were titrated, and the measured viable cell fractions were further analyzed using the Prism Calculation Software (GraphPad Software Inc., La Jolla, USA).
In FIG. 2A Western blot analyses of caspases 9 and 3, and the caspase substrate PARP (upper panel), and viability analyses (lower panel) of INA-6 MM cells upon treatment with trans-7b for 24 hours are shown. INA-6 cells were either incubated with DMSO (as a solvent control) or with 0.6 μM of trans-7b, and additionally incubated either with DMSO or the pan-caspase inhibitor Z-VAD-FMK prior to analyses by Western or viability assessment (without Z-VAD-FMK co-treatment) by Annexin V/propidum iodide double staining. For Western analyses INA-6 cell pellets were dissolved in lysis buffer (20 mM HEPES (pH 7.9), 350 mM NaCl, 1 mM MgCl2, 0.5 mM EDTA, 0.1 mM EGTA, 1% NP40, 0.5 mM dithiothreiol (DTT), 1 mM Na3VO4, 0.1 mM PMSF and 1 μg/ml aprotinin). Lysates were cleared by centrifugation, measured by quantitative protein assay (Bio-Rad, München, Germany) and subjected to SDS gel electrophoresis. Proteins were transferred onto nitrocellulose membranes (Schleicher & Schuell, Dassel, Germany), incubated with antibodies specific for caspase 9, caspase 3 or PARP (Cell Signaling Technology, Frankfurt a.Main, Germany) according to standard procedures and visualized with secondary anti-rabbit horseradish peroxidase (HRP)-conjugated antibodies using an enhanced chemoluminescence detection system (ECL, Amersham, Freiburg, Germany). […] Annexin V/propidium iodide (PI) staining was performed using a fluorescein isothiocyanate (FITC) conjugated recombinant human annexin/propidium iodide kit (BenderMedSystems, Vienna, Austria) according to the manufacturer's instructions. INA-6 cells were washed in PBS, incubated for 15 minutes in 100 ml binding buffer (10 mM HEPES/NaOH, pH 7.4, 140 mM NaCl, 2.5 mM CaCl2) containing 2.5 mL annexin V-FITC mix and 1 mg/ml PI and analyzed by flow cytometry (FACSCalibur/CELLQuest; Becton Dickinson, Heidelberg, Germany). Whereas early apoptosis is characterized by positive annexin V-FITC staining reaction, cells in a late apoptotic stage lose their membrane integrity and additionally incorporate PI. Thus, the fraction of viable cells remains negative for both annexin V-FITC and PI. […] Based on the above described experiments also viability analyses of INA-6 in comparison with non-malignant PBMCs were performed choosing a longer incubation time (72 hours) as shown in FIG. 2B or C. Raw data of three independent experiments have been calculated to establish means, standard deviation and dose-effect curves of trans-7b.

[2] = system: caspases 9 and 3; experiment: Apoptosis assay: cleavage and activation of caspases 9 and 3, PARP cleavage in INA-6 cells (Western blot); assay type: cell-based, human; settings: INA-6, Z-VAD-FMK 50 μM
Protocol: Apoptosis Assays. Hsp70-dependent prevention of apoptosis was investigated by analyses of the apoptosis-inducing factors (AIF) and of the caspases 9 and 3 in INA-6 cells. INA-6 cells were treated with 0.6 μM of compound trans-7b for 8 hours prior to analyze nuclear translocation of AIF. Staining of the nuclear protein lamin A was used as a loading control. […] Analysis of cleavage of the bona fide caspase substrate PARP served as a control for caspase activation. Co-treatment with the pan-caspase inhibitor Z-VAD-FMK (50 μM) was employed as another specificity control.
In FIG. 2A Western blot analyses of caspases 9 and 3, and the caspase substrate PARP (upper panel), and viability analyses (lower panel) of INA-6 MM cells upon treatment with trans-7b for 24 hours are shown. […] Lysates were cleared by centrifugation, measured by quantitative protein assay (Bio-Rad, München, Germany) and subjected to SDS gel electrophoresis. […] INA-6 cells were washed in PBS, incubated for 15 minutes in 100 ml binding buffer (10 mM HEPES/NaOH, pH 7.4, 140 mM NaCl, 2.5 mM CaCl2) containing 2.5 mL annexin V-FITC mix and 1 mg/ml PI and analyzed by flow cytometry (FACSCalibur/CELLQuest; Becton Dickinson, Heidelberg, Germany). […] Raw data of three independent experiments have been calculated to establish means, standard deviation and dose-effect curves of trans-7b.

EC50 ([1]; Homo sapiens, INA-6, 72 h): 43 µM
Compound: Cc1cc(C)cc(C2C(C(=O)Nc3cccc(C)n3)c3ccccc3C(=O)N2c2cc(C)cc(C)c2)c1 (stereo not drawn) [trans-7m, trans-2,3-Bis(3,5-dimethylphenyl)-N-(6-methylpyridin-2-yl)-1-oxo-1,2,3,4-tetrahydroisoquinoline-4-carboxamide]

EC50 ([1]; Homo sapiens, INA-6, 72 h): > 100 µM
Compound: COc1ccc(C2C(C(=O)Nc3cccc(C)n3)c3ccccc3C(=O)N2c2ccc(Oc3ccccc3)cc2)cc1 (stereo not drawn) [trans-7n, trans-3-(4-Methoxyphenyl)-N-(6-methylpyridin-2-yl)-1-oxo-2-(4-phenoxyphenyl)-1,2,3,4-tetrahydroisoquinoline-4-carboxamide]

EC50 ([1]; Homo sapiens, INA-6, 72 h): 30 µM
Compound: Cc1cccc(NC(=O)C2c3ccccc3C(=O)N(c3ccc(O)cc3)C2c2ccc(O)cc2)n1 (stereo not drawn) [trans-7o, trans-2,3-Bis(4-hydroxyphenyl)-N-(6-methylpyridin-2-yl)-1-oxo-1,2,3,4-tetrahydroisoquinoline-4-carboxamide]

EC50 ([1]; Homo sapiens, INA-6, 72 h): 0.2 µM
Compound: COc1ccc(C2C(C(=O)Nc3ncccn3)c3ccccc3C(=O)N2c2ccccc2)cc1 (stereo not drawn) [trans-7p, trans-3-(4-Methoxyphenyl)-1-oxo-2-phenyl-N-(pyrimidin-2-yl)-1,2,3,4-tetrahydroisoquinoline-4-carboxamide]

EC50 ([1]; Homo sapiens, INA-6, 72 h): 0.57 µM
Compound: COc1ccc(C2C(C(=O)Nc3cccnc3)c3ccccc3C(=O)N2c2ccccc2)cc1 (stereo not drawn) [trans-7q, trans-3-(4-Methoxyphenyl)-1-oxo-2-phenyl-N-(pyridin-3-yl)-1,2,3,4-tetrahydroisoquinoline-4-carboxamide]

EC50 ([1]; Homo sapiens, INA-6, 72 h): 0.34 µM
Compound: COc1ccc(C2C(C(=O)Nc3cc(C)cc(C)n3)c3ccccc3C(=O)N2c2ccccc2)cc1 (stereo not drawn) [trans-7r, trans-N-(4,6-Dimethylpyridin-2-yl)-3-(4-methoxyphenyl)-1-oxo-2-phenyl-1,2,3,4-tetrahydroisoquinoline-4-carboxamide]

Continued, compound first:

Compound: O=C(O)[C@@H]1c2ccccc2C(=O)N(c2ccc(F)cc2)[C@H]1c1ccc(F)cc1 (relative stereo) [trans-5e, trans-2,3-Bis(4-fluorophenyl)-1-oxo-1,2,3,4-tetrahydroisoquinoline-4-carboxylic acid]
melting point: 116 to 118 °C

Compound: O=C(O)[C@@H]1c2ccccc2C(=O)N(c2ccc(Cl)cc2)[C@H]1c1ccc(Cl)cc1 (relative stereo) [trans-5f, trans-2,3-Bis(4-chlorophenyl)-1-oxo-1,2,3,4-tetrahydroisoquinoline-4-carboxylic acid]
melting point: 116 to 127 °C

Compound: COc1ccc([C@H]2[C@H](C(=O)O)c3ccccc3C(=O)N2c2ccc(Oc3ccccc3)cc2)cc1 (relative stereo) [trans-5h, trans-3-(4-Methoxyphenyl)-1-oxo-2-(4-phenoxyphenyl)-1,2,3,4-tetrahydroisoquinoline-4-carboxylic acid]
melting point: 109 to 115 °C

Compound: COC(=O)C[C@H](NC(=O)[C@H](C)NC(=O)[C@@H](NC(=O)OCc1ccccc1)C(C)C)C(=O)CF [Z-VAD-FMK, reference compound] (Cbz-Val-Ala-Asp(OMe)-CH2F)
trans-7b-induced induction of apoptosis under co-incubation ([1]; INA-6, Z-VAD-FMK 50 μM with trans-7b 0.6 μM): largely prevented
caspase activation and PARP cleavage under co-treatment with trans-7b [2]: sufficiently inhibited

Compound: COc1ccc(N2C(=O)c3ccccc3C(C(=O)O)C2c2ccccc2)cc1 (stereo not drawn) [cis-5c, cis-2-(4-Methoxyphenyl)-1-oxo-3-phenyl-1,2,3,4-tetrahydroisoquinoline-4-carboxylic acid]
melting point: 208 to 209 °C
EC50 ([1]; Homo sapiens, INA-6, 72 h): > 100 µM

Compound: COc1ccc(C2C(C(=O)O)c3ccccc3C(=O)N2c2ccc(OC)cc2)cc1 (stereo not drawn) [cis-5d, cis-2,3-Bis(4-methoxyphenyl)-1-oxo-1,2,3,4-tetrahydroisoquinoline-4-carboxylic acid]
melting point: 232 to 233 °C
EC50 [1]: > 100 µM

Compound: O=C(O)C1c2ccccc2C(=O)N(c2ccccc2)C1c1ccccc1 (stereo not drawn) [trans-5a, trans-2,3-Diphenyl-1-oxo-1,2,3,4-tetrahydroisoquinoline-4-carboxylic acid]
melting point: 226 to 229 °C
EC50 ([1]; Homo sapiens, INA-6, 72 h): 6.9 µM

Compound: COc1ccc(C2C(C(=O)O)c3ccccc3C(=O)N2c2ccccc2)cc1 (stereo not drawn) [trans-5b, trans-3-(4-Methoxyphenyl)-1-oxo-2-phenyl-1,2,3,4-tetrahydroisoquinoline-4-carboxylic acid]
melting point: 171 to 173 °C
EC50 ([1]; Homo sapiens, INA-6, 72 h): 1.3 µM

Compound: COc1ccc(N2C(=O)c3ccccc3C(C(=O)O)C2c2ccccc2)cc1 (stereo not drawn) [trans-5c, trans-2-(4-Methoxyphenyl)-1-oxo-3-phenyl-1,2,3,4-tetrahydroisoquinoline-4-carboxylic acid]
melting point: 106 to 118 °C
EC50 [1]: 57 µM

Compound: COc1ccc(C2C(C(=O)O)c3ccccc3C(=O)N2c2ccc(OC)cc2)cc1 (stereo not drawn) [trans-5d, trans-2,3-Bis(4-methoxyphenyl)-1-oxo-1,2,3,4-tetrahydroisoquinoline-4-carboxylic acid]
melting point: 201 to 203 °C
EC50 [1]: 10.1 µM

Compound: Cc1cccc(NC(=O)C2c3ccccc3C(=O)N(c3ccc(Cl)cc3)C2c2ccc(Cl)cc2)n1 (stereo not drawn) [trans-7l, trans-2,3-Bis(4-chlorophenyl)-N-(6-methylpyridin-2-yl)-1-oxo-1,2,3,4-tetrahydroisoquinoline-4-carboxamide]
EC50 ([1]; Homo sapiens, INA-6, 72 h): 2.9 µM
